Laboratory results taken from ChEMBL document CHEMBL5291721, “A preclinical secondary pharmacology resource illuminates target-adverse drug reaction associations of marketed drugs” (Nat Commun, 2023).

Legend:
[1] = biological target: 3',5'-cyclic-AMP phosphodiesterase 4D (Homo sapiens, UniProt Q08499); format: functional
[2] = biological target: Melanocortin receptor 3 (Homo sapiens, UniProt P41968)
[3] = biological target: cGMP-inhibited 3',5'-cyclic phosphodiesterase 3A (Homo sapiens, UniProt Q14432); format: functional
cGMP-inhibited 3',5'-cyclic phosphodiesterase 3A, sequence (Q14432 whole entry): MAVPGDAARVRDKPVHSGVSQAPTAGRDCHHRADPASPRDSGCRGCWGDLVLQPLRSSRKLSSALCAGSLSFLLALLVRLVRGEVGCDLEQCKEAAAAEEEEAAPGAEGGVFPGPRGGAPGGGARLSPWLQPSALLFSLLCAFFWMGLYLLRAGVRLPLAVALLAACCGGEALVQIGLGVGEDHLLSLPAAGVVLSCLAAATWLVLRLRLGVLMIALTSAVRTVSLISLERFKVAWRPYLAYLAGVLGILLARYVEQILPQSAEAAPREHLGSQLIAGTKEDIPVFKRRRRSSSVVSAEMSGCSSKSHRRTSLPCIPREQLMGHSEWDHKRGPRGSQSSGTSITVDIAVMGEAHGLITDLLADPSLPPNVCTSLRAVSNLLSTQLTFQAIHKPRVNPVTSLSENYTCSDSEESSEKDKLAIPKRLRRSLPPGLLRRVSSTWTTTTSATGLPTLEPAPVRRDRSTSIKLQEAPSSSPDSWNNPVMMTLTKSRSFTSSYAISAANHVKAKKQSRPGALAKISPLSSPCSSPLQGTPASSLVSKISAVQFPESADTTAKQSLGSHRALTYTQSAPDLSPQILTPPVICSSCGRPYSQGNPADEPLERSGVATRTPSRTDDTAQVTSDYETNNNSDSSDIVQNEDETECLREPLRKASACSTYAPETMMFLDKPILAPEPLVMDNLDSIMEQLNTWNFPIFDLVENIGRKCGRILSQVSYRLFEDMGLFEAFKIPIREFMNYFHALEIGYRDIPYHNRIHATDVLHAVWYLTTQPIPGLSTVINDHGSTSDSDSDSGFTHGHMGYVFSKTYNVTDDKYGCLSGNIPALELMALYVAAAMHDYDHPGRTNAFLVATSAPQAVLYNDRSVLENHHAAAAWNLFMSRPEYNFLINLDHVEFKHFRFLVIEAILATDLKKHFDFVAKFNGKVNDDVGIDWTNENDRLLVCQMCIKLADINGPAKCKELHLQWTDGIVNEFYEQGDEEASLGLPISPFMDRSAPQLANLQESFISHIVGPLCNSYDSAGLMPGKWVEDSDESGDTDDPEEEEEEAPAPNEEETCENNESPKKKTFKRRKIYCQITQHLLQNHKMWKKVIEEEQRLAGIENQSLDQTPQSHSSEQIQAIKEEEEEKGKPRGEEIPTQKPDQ

[4] = biological target: T1, Cholecystokinin receptor type A (Homo sapiens, UniProt P32238)
T1 sequence (P32238 whole entry): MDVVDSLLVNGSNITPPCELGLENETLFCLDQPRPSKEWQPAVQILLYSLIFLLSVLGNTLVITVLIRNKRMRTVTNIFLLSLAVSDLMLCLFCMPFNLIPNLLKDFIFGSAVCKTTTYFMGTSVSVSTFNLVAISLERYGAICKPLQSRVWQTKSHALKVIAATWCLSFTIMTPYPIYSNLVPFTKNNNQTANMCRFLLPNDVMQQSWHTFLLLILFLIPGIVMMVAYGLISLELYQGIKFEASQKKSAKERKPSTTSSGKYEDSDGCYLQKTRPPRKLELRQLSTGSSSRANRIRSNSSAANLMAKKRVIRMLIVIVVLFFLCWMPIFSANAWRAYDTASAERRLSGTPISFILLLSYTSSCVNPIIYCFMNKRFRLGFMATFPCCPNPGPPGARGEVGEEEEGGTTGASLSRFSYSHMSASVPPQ

[5] = biological target: Sodium-dependent noradrenaline transporter (Homo sapiens, UniProt P23975)
Sodium-dependent noradrenaline transporter, sequence (P23975 whole entry): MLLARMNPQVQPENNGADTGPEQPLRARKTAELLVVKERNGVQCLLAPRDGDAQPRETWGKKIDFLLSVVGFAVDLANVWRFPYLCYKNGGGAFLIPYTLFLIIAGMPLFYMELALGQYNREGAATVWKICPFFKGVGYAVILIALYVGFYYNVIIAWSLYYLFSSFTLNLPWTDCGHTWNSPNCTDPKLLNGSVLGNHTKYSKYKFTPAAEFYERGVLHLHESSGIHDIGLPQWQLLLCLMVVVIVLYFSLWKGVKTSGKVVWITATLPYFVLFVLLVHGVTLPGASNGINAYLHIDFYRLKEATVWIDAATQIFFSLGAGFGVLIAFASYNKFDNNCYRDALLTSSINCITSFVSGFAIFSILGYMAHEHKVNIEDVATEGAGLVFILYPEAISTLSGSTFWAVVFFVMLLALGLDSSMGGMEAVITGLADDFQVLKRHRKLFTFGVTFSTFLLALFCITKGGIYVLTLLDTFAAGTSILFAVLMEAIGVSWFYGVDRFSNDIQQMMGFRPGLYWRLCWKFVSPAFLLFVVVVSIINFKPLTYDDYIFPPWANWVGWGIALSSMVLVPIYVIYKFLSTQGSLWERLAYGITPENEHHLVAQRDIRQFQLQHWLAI

[6] = biological target: T2, Amine oxidase [flavin-containing] A (Homo sapiens, UniProt P21397); format: functional
T2 sequence (P21397 whole entry): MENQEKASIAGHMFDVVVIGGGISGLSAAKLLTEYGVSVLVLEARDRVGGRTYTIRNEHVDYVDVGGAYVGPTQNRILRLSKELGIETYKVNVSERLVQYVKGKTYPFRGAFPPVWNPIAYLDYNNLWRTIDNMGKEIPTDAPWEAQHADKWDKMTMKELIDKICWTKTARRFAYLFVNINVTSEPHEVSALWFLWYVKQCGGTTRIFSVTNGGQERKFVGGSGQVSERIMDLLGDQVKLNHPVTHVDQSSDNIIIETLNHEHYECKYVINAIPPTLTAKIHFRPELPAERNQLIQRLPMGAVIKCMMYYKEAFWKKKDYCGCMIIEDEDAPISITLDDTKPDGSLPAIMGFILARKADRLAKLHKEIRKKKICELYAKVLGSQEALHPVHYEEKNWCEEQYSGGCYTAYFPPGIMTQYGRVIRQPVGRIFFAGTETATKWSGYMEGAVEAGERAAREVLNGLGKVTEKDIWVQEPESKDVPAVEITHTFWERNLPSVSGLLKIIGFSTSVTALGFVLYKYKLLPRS

[7] = biological target: D(3) dopamine receptor (Homo sapiens, UniProt P35462)
D(3) dopamine receptor, sequence (P35462 whole entry): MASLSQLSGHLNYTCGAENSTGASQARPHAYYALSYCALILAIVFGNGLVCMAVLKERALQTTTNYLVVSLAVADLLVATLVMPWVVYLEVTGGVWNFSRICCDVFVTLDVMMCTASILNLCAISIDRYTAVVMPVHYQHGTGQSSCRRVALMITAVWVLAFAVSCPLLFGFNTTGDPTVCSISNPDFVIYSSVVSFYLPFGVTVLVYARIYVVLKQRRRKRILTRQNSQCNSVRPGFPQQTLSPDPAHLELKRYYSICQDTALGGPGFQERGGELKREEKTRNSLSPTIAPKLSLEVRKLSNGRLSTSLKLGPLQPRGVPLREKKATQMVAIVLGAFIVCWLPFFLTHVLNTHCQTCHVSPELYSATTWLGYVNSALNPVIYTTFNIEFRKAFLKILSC

[8] = biological target: 5-hydroxytryptamine receptor 2B (Homo sapiens, UniProt P41595); format: functional, cell-based
5-hydroxytryptamine receptor 2B, sequence (P41595 whole entry): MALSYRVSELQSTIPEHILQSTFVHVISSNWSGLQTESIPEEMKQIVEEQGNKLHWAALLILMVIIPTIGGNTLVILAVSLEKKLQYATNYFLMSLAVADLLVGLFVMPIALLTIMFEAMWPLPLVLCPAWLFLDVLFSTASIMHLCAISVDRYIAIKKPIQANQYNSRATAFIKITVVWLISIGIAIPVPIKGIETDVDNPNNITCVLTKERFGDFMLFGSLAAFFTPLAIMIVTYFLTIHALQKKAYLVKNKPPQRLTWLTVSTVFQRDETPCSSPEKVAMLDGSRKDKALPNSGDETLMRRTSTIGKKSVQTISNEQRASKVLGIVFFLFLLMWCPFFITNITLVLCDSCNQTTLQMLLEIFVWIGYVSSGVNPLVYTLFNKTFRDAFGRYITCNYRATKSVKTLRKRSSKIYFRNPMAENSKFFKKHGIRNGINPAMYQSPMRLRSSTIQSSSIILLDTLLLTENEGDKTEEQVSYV

[9] = biological target: T3, 5-hydroxytryptamine receptor 2C (Homo sapiens, UniProt P28335)
T3 sequence (P28335 whole entry): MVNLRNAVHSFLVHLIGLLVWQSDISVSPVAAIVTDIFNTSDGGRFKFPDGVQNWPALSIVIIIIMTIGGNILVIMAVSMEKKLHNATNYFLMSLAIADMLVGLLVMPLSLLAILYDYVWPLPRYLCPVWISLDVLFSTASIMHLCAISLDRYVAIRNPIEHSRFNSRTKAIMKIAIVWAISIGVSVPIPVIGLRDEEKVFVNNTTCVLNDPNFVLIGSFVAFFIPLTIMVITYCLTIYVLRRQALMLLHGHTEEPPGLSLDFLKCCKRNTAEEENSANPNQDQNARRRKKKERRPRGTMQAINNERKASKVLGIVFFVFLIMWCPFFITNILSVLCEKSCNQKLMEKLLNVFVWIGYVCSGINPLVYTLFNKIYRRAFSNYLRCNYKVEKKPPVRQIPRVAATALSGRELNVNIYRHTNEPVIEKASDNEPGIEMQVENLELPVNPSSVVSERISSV

[10] = biological target: T4, Alpha-2A adrenergic receptor (Homo sapiens, UniProt P08913); format: functional, cell-based
T4 sequence (P08913 whole entry): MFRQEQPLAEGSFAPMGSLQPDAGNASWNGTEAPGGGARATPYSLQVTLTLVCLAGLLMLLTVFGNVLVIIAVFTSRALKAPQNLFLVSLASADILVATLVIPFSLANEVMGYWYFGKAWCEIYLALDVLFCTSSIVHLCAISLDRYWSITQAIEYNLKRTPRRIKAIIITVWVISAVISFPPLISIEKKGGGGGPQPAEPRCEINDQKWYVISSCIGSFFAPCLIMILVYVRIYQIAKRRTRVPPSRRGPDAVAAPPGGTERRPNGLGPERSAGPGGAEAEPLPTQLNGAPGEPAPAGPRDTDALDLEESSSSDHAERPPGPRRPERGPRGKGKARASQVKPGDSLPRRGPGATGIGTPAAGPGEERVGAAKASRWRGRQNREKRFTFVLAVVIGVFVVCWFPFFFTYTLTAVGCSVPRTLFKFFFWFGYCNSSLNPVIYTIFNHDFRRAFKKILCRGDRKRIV

[11] = biological target: Motilin receptor (Homo sapiens, UniProt O43193)
Motilin receptor, sequence (O43193 whole entry): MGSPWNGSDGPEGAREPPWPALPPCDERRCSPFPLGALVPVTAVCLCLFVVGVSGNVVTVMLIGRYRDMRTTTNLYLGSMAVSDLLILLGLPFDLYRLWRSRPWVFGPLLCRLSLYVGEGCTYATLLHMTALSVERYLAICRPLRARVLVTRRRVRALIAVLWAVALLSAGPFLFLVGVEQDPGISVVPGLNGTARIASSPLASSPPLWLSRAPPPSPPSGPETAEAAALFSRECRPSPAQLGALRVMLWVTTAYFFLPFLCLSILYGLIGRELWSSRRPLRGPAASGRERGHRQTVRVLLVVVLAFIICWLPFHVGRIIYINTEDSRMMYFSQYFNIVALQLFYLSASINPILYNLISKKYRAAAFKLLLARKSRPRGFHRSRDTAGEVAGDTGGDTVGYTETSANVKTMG

[12] = biological target: T5, 5-hydroxytryptamine receptor 3A (Homo sapiens, UniProt P46098); format: functional
T5 sequence (P46098 whole entry): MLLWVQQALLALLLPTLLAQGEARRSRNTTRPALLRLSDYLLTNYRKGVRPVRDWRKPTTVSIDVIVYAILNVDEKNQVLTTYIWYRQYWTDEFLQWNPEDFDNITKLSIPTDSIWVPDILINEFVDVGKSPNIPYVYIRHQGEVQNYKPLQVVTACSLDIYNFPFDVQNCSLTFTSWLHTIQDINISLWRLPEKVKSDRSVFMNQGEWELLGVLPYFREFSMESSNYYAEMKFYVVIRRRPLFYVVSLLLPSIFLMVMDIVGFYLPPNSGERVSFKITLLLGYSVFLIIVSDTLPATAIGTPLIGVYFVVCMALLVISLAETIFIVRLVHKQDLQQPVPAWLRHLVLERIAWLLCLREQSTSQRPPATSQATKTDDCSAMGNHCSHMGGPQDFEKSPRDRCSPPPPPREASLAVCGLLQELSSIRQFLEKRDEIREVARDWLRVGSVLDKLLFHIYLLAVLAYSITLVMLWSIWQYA

[13] = biological target: D(1A) dopamine receptor (Homo sapiens, UniProt P21728); format: functional, cell-based
D(1A) dopamine receptor, sequence (P21728 whole entry): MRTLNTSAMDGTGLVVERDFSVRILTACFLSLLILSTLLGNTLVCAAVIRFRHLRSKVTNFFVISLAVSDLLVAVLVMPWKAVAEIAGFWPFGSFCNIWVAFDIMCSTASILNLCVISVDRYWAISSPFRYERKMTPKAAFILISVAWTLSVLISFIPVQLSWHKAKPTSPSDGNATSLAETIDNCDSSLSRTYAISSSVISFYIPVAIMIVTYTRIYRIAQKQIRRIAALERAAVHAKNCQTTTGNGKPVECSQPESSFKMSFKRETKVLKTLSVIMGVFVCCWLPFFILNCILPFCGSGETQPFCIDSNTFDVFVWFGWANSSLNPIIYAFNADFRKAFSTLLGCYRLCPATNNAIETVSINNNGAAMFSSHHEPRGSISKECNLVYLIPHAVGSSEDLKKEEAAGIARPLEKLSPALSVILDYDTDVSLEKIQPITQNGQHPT
Also: assay procedure not described here.

Melanocortin receptor 3, sequence (P41968 whole entry): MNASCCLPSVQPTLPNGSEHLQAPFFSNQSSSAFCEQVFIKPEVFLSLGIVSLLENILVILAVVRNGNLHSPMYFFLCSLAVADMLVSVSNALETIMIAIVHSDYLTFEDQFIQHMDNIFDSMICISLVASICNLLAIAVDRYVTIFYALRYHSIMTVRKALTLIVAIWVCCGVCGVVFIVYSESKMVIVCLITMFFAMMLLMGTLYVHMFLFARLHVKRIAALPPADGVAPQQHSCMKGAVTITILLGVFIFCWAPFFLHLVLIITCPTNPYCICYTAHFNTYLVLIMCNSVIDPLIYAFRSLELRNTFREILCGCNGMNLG
3',5'-cyclic-AMP phosphodiesterase 4D, sequence (Q08499 whole entry): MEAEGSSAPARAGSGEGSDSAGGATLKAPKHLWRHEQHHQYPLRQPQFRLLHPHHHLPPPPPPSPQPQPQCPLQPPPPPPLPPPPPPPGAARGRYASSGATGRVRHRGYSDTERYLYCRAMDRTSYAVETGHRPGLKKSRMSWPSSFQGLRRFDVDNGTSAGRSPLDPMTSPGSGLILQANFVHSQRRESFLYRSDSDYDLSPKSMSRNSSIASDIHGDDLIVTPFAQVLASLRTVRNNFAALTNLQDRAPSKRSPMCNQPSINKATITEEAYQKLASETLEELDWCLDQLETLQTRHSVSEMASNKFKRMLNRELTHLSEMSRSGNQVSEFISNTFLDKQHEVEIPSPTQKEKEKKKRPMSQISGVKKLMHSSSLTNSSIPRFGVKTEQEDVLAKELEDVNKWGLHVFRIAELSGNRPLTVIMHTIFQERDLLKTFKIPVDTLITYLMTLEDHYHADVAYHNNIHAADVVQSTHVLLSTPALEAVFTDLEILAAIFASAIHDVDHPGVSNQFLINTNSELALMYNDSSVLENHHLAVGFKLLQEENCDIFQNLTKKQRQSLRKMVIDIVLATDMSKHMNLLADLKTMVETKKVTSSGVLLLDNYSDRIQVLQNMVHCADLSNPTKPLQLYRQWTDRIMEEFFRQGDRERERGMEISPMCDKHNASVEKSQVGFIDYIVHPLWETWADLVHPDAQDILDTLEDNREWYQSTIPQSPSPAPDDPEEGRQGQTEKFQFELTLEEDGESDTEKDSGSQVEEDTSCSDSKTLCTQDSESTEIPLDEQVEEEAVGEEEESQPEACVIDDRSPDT

Compound | AC50 [1] | AC50 [2] | AC50 [3] | AC50 [4] | AC50 [5] | AC50 [6] | AC50 [7] | AC50 [8] | AC50 [9] | AC50 [10] | AC50 [11] | AC50 [12] | AC50 [13]
C[C@H]1O[C@H](O[C@H]2[C@H](O)[C@@H](O)[C@@H](O[C@H]3[C@H](O)[C@@H](O)C(O)O[C@@H]3CO)O[C@@H]2CO)[C@H](O)[C@@H](O)[C@@H]1N[C@H]1C=C(CO)[C@@H](O)[C@H](O)[C@H]1O (some centres undefined) [ACARBOSE] | > 30 µM | > 30 µM | > 30 µM | > 30 µM | > 30 µM | > 10 µM | > 10 µM | > 30 µM | > 30 µM | > 30 µM | > 30 µM | > 10 µM | > 10 µM
CC(=O)c1ccc2c(c1)N(CCCN1CCN(CCO)CC1)c1ccccc1S2 [ACETOPHENAZINE] | > 30 µM | > 30 µM | > 30 µM | > 30 µM | 17 µM | > 30 µM | 0.0044 µM | 4.49 µM | > 30 µM | > 30 µM | 27 µM | > 30 µM | > 30 µM
Oc1ncnc2[nH]ncc12 [ALLOPURINOL] | > 30 µM | > 30 µM | > 30 µM | > 30 µM | > 10 µM | > 30 µM | > 10 µM | > 10 µM | > 30 µM | > 10 µM | > 10 µM | > 30 µM | > 10 µM
COC(=O)N[C@H](C(=O)N[C@@H](Cc1ccccc1)[C@@H](O)CN(Cc1ccc(-c2ccccn2)cc1)NC(=O)[C@@H](NC(=O)OC)C(C)(C)C)C(C)(C)C [ATAZANAVIR] | > 30 µM | > 30 µM | > 30 µM | 17.6 µM | > 30 µM | > 10 µM | > 30 µM | > 10 µM | > 30 µM | > 10 µM | 6.4 µM | > 30 µM | > 10 µM
CC(C)NCC(O)COc1ccc(COCCOC(C)C)cc1 (centres undefined) [BISOPROLOL] | > 30 µM | > 30 µM | > 30 µM | > 30 µM | > 10 µM | > 10 µM | > 30 µM | > 10 µM | > 30 µM | > 10 µM | > 10 µM | > 10 µM | > 10 µM
N[C@@H](C(=O)N[C@@H]1C(=O)N2C(C(=O)O)=C(Cl)CS[C@H]12)c1ccccc1 [CEFACLOR ANHYDROUS] | > 30 µM | > 30 µM | > 30 µM | > 30 µM | > 30 µM | > 30 µM | > 30 µM | > 30 µM | > 10 µM | > 30 µM | > 30 µM | > 30 µM | > 30 µM
CCC[C@@H]1C[C@@H](C(=O)N[C@@H]([C@H]2O[C@H](SC)[C@H](O)[C@@H](O)[C@H]2O)[C@H](C)Cl)N(C)C1 [CLINDAMYCIN] | > 30 µM | > 30 µM | > 30 µM | > 30 µM | > 10 µM | > 10 µM | > 10 µM | > 10 µM | > 30 µM | > 10 µM | > 10 µM | > 30 µM | > 10 µM
O=C(O)c1cc(-c2ccc(F)cc2F)ccc1O [DIFLUNISAL] | > 30 µM | > 10 µM | > 30 µM | > 10 µM | > 10 µM | > 10 µM | > 30 µM | > 10 µM | > 30 µM | > 10 µM | > 10 µM | > 30 µM | > 30 µM
CN(CCOc1ccc(NS(C)(=O)=O)cc1)CCc1ccc(NS(C)(=O)=O)cc1 [DOFETILIDE] | > 30 µM | > 30 µM | > 30 µM | > 30 µM | > 10 µM | > 10 µM | 0.78 µM | > 30 µM | > 30 µM | > 30 µM | > 10 µM | > 30 µM | > 10 µM
COC(=O)[C@@H]1CC2=CC(=O)CC[C@]2(C)[C@@]23O[C@@H]2C[C@@]2(C)[C@@H](CC[C@@]24CCC(=O)O4)[C@H]13 [EPLERENONE] | > 30 µM | > 30 µM | > 30 µM | > 30 µM | > 30 µM | > 30 µM | > 30 µM | > 30 µM | > 30 µM | > 30 µM | > 30 µM | > 30 µM | > 30 µM
NC(N)=Nc1nc(CSCCC(N)=NS(N)(=O)=O)cs1 [FAMOTIDINE] | > 10 µM | > 30 µM | > 10 µM | > 30 µM | > 10 µM | 8.1 µM | > 10 µM | > 10 µM | > 10 µM | > 10 µM | > 10 µM | > 10 µM | > 10 µM
CC(C)C(=O)Nc1ccc([N+](=O)[O-])c(C(F)(F)F)c1 [FLUTAMIDE] | > 30 µM | > 30 µM | > 10 µM | > 30 µM | > 10 µM | > 30 µM | > 30 µM | > 10 µM | > 30 µM | > 10 µM | > 30 µM | > 30 µM | > 30 µM
C[C@@H]1O[C@@H]1P(=O)(O)O [FOSFOMYCIN] | > 30 µM | > 10 µM | > 30 µM | > 10 µM | > 10 µM | > 10 µM | > 30 µM | > 10 µM | > 30 µM | > 10 µM | > 10 µM | > 30 µM | > 10 µM
